Literature values in patent US11730774B2, “Bacterial biofilms and cancer” (THE JOHNS HOPKINS UNIVERSITY, priority 2018, dated 2023).

Tested on: bacteria
Conditions: 6-week-old mice, water containing 500 mg/L cefoxitin for 48 hours; by 24 hours

## CO[C@@]1(NC(=O)Cc2cccs2)C(=O)N2C(C(=O)O)=C(COC(N)=O)CS[C@@H]21 [Cefoxitin]
  detectable bacteria by culture or 16S rRNA qPCR: absence of detectable bacteria
